Reference: patent publication US20210318318A1, “Kinase Activity In Tumors” (Institute For Cancer Research d/b/a The Research Institute …, priority 2018, published 2021)

Assays:
Experiment in all cases: MIB/MS kinome profiling of inhibitor-treated OVSAHO cells
Assay type in all cases: cell-based
MRCKB = molecular target: T1, MRCKB (Homo sapiens, UniProt Q9Y5S2); conditions: 2 μM, 4 hour treatment
T1 construct: endogenous in cells; host or cells: OVSAHO
Description: (§1) OVSAHO cells were treated with inhibitors at a dose of 2 μM for 4 hours and kinase inhibition profiles determined by MIB/MS. Bar graph depicts % of kinase bound to MIBs relative to DMSO control as determined by label free quantitation.
(§2) OVSAHO cells were treated with 2 μM of inhibitor for 4 hours and analyzed by MIB/MS. Scatterplot depicts difference in kinase MIB-binding of drug treated relative to control DMSO as determined by Students T-test.
(§3) MIB-based kinome profiling was performed on several of these molecules in HGSOC cells to determine kinome-wide inhibition profiles.
(§4) Experiments using MIB/MS were performed as previously described (Duncan et al., Cell, 2012, 149, 307-321; and Kurimchak et al., Cell Reports, 2016, 16, 1273-1286). Briefly, cells or tumors were lysed on ice in buffer containing 50 mM HEPES (pH 7.5), 0.5% Triton X-100, 150 mM NaCl, 1 mM EDTA, 1 mM EGTA, 10 mM sodium fluoride, 2.5 mM sodium orthovanadate, 1× protease inhibitor cocktail (Roche), and 1% each of phosphatase inhibitor cocktails 2 and 3 (Sigma). Particulate was removed by centrifugation of lysates at 13,000 rpm for 10 minutes at 4° C. and filtration through 0.2 μm syringe filters. Protein concentrations were determined by BCA analysis (Thermo). To compare kinome signatures within and across such large sample sizes, a super-SILAC method was designed (Neubert et al., Nat. Meth., 2010, 7, 361-362) consisting of a cocktail of cancer cell lines that encompasses the activity of the “cancer kinome” to be used as a control for individual samples. Five cancer cell lines were selected from the NCI-60 panel (UACC257, MOLT4, COL0205, ACHN and PC3) that differed in their origin, gene expression patterns and mutation status. The cancer cell lines were labeled using SILAC and mixed equally providing a diverse SILAC ([^13C6,^15N4] arginine (Arg^10) and […] (Lys^8)) heavy kinome reference standard (HKS) to be used repeatedly in kinome profiling assays. An equal amount of the HKS was added to the non-labeled sample (cell, tumor or normal tissue) providing a quantitative strategy to compare kinome activity/levels across samples, amongst treatments and, importantly, across time. […]
(§5) Proteolytic peptides were resuspended in 0.1% formic acid and separated with a Thermo RSLC Ultimate 3000 on a Thermo Easy-Spray C18 PepMap 75 μm×50 cm C-18 2 μm column with a 240 minute gradient of 4-25% acetonitrile with 0.1% formic acid at 300 nL/min and 50° C. Eluted peptides were analyzed by a Thermo Q Exactive plus mass spectrometer utilizing a top 15 methodology in which the 15 most intense peptide precursor ions were subjected to fragmentation.

ROCK2 = molecular target: T2, ROCK2 (Homo sapiens, UniProt O75116); conditions: 2 μM, 4 hours
T2 construct: endogenous in cells; host or cells: OVSAHO
Description: as §2, §3
Experiments using MIB/MS were performed as previously described (Duncan et al., Cell, 2012, 149, 307-321; and Kurimchak et al., Cell Reports, 2016, 16, 1273-1286). Briefly, cells or tumors were lysed on ice in buffer containing 50 mM HEPES (pH 7.5), 0.5% Triton X-100, 150 mM NaCl, 1 mM EDTA, 1 mM EGTA, 10 mM sodium fluoride, 2.5 mM sodium orthovanadate, 1× protease inhibitor cocktail (Roche), and 1% each of phosphatase inhibitor cocktails 2 and 3 (Sigma). Particulate was removed by centrifugation of lysates at 13,000 rpm for 10 minutes at 4° C. and filtration through 0.2 μm syringe filters. Protein concentrations were determined by BCA analysis (Thermo). To compare kinome signatures within and across such large sample sizes, a super-SILAC method was designed (Neubert et al., Nat. Meth., 2010, 7, 361-362) consisting of a cocktail of cancer cell lines that encompasses the activity of the “cancer kinome” to be used as a control for individual samples. […] An equal amount of the HKS was added to the non-labeled sample (cell, tumor or normal tissue) providing a quantitative strategy to compare kinome activity/levels across samples, amongst treatments and, importantly, across time. […]
as §5

MRCKA = MRCKA (Homo sapiens, UniProt Q5VT25); parameters: endogenous in cells; host or cells: OVSAHO; conditions: 2 μM, 4 hour treatment
Description: as §1, §2, §3, §4, §5

MRCKA, sequence (Q5VT25 whole entry): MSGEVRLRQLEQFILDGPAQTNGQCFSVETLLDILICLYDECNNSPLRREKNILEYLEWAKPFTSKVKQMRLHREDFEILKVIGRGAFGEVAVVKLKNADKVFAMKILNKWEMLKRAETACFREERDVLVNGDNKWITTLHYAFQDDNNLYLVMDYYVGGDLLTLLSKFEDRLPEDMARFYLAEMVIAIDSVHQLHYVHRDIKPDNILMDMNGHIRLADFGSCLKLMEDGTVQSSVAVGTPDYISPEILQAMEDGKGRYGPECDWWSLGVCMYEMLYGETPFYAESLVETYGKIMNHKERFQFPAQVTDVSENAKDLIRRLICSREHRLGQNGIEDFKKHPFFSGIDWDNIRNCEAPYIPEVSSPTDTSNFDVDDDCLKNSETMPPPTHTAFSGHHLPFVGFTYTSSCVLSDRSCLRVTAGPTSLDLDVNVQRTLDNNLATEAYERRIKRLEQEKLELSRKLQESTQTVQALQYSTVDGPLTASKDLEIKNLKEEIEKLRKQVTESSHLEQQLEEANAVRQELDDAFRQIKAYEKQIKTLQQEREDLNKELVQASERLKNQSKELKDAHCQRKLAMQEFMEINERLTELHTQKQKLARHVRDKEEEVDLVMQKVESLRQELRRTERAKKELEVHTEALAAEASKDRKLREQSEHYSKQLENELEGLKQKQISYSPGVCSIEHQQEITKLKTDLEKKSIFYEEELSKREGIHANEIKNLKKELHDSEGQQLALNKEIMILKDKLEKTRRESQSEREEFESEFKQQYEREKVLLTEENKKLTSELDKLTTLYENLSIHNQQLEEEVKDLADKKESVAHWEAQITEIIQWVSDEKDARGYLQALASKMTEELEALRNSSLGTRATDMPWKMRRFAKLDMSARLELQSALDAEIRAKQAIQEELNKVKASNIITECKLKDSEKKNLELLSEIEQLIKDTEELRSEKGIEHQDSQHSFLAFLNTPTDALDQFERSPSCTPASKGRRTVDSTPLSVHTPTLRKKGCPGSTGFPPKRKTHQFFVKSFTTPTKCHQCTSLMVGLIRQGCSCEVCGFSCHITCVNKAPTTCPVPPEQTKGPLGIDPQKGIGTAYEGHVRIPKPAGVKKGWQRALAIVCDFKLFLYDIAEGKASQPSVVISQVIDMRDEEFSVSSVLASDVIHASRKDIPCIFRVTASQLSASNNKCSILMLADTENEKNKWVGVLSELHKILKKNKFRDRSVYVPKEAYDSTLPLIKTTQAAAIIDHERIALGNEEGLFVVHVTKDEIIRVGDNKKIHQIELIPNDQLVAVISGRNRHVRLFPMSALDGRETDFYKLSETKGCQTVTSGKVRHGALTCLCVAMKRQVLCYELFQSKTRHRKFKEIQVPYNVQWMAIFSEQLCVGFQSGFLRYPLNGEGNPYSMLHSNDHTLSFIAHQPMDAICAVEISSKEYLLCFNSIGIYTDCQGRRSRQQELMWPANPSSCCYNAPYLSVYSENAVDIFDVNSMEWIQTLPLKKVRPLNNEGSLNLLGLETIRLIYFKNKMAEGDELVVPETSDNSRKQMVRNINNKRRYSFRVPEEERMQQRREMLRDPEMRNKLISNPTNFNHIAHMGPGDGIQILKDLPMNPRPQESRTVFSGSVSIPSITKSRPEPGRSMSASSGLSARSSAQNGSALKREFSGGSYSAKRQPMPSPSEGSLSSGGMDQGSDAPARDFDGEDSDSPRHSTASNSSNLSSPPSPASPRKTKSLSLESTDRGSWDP
T2 sequence (O75116 whole entry): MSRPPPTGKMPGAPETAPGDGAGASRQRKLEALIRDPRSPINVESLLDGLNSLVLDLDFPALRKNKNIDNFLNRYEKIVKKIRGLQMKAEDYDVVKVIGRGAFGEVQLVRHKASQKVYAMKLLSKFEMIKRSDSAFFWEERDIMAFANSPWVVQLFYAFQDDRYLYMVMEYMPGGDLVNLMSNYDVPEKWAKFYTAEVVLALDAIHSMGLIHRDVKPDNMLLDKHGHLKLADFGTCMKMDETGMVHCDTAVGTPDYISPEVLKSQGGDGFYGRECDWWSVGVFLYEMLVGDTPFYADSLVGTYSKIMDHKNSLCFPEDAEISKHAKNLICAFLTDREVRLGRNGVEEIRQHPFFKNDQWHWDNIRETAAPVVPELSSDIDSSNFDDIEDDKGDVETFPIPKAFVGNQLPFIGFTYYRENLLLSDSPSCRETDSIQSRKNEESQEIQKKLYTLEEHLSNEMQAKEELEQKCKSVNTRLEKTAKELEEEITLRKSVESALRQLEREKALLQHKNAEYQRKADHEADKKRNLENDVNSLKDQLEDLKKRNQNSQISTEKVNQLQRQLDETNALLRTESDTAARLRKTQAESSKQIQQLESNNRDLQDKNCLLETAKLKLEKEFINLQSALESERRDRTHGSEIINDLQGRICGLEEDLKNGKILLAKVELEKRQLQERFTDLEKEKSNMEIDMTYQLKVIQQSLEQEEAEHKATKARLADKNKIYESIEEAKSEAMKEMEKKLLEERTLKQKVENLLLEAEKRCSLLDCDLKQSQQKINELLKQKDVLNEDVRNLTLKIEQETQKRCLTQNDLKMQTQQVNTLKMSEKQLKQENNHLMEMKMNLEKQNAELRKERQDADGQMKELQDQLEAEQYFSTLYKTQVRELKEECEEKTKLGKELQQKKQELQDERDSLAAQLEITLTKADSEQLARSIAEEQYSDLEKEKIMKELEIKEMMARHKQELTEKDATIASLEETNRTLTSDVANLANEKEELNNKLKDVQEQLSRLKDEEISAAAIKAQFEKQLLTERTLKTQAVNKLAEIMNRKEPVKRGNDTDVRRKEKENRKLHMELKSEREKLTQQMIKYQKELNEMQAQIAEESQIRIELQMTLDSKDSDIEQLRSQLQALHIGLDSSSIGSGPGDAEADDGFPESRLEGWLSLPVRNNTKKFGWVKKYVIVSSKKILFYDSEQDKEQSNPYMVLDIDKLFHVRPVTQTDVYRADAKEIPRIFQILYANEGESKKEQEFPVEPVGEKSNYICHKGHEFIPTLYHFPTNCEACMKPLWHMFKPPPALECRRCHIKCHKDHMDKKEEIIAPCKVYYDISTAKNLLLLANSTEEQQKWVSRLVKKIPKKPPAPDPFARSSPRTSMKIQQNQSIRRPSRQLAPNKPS
T1 sequence (Q9Y5S2 whole entry): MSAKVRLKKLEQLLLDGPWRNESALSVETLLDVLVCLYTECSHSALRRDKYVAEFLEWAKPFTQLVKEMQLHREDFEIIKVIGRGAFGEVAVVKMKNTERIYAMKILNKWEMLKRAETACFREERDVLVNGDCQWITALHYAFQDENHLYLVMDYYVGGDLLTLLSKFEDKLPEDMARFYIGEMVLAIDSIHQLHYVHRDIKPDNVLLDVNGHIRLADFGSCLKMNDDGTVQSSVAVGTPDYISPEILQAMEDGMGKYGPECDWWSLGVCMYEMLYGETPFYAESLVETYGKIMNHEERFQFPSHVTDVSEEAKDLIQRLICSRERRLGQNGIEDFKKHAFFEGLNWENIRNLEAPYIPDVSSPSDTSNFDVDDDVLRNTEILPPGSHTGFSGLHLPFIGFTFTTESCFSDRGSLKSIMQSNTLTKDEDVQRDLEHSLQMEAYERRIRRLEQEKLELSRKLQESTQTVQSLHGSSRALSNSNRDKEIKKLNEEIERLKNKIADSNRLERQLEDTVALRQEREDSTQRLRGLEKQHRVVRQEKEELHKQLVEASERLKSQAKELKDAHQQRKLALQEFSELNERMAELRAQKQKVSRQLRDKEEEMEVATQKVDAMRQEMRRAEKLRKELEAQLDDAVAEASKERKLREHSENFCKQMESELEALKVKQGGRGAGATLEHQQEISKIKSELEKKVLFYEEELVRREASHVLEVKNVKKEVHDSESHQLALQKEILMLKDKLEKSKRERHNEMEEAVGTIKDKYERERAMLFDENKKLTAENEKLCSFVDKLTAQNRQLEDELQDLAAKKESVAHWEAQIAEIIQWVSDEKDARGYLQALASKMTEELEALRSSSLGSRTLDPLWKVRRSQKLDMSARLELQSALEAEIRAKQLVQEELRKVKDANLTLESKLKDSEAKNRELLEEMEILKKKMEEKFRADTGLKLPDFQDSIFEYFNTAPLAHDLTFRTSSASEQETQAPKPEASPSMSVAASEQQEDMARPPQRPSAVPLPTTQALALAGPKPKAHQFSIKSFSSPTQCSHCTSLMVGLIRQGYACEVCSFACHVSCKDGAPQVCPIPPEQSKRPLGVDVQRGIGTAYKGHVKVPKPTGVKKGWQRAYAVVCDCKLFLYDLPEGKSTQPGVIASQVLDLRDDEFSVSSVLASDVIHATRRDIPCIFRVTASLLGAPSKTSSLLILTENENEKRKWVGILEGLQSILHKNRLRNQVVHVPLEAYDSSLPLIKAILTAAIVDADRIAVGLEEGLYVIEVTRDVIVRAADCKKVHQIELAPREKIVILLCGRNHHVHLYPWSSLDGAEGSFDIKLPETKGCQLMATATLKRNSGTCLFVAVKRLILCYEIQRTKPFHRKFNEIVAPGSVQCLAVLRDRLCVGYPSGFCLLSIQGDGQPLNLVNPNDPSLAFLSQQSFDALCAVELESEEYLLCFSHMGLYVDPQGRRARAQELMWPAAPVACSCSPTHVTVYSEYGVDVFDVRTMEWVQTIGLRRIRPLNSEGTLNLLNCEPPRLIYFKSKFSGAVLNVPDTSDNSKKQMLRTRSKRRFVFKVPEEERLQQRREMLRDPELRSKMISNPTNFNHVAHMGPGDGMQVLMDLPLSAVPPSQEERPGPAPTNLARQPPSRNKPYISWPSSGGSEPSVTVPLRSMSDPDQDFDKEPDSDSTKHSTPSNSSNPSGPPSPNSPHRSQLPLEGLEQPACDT

Cc1[nH]nc2ccc(-c3cncc(OC[C@@H](N)Cc4ccccc4)c3)cc12 [A-674563]
MIB-binding of MRCKB relative to DMSO (MRCKB): Reduced MIB-binding | MIB-binding of ROCK2 (ROCK2): did not influence | MIB-binding of MRCKA relative to DMSO (MRCKA): greatest reduction
